The target of one experiment is ROCK2 (Homo sapiens, UniProt O75116). Kind of experiment: biochemical.
A further experiment addresses ROCK1 (Homo sapiens, UniProt Q13464). The experiment can be described thus: ROCK kinase inhibition assay, ROCK1 enzyme.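 Also: kinase reaction with 0.5 µM final ATP, 75 min at room temperature, remaining ATP read by luminescence, percent of DMSO-only control minus background.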 It is filed as biochemical.
A further experiment deals with JAK2 (Homo sapiens, UniProt O60674). Kind of experiment: JAK kinase assay, JAK2 enzyme.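 Also: JAK2 kinase reaction run 75 min at room temperature, leftover ATP read by Kinase-Glo luminescence, 11-point dilution series in 2.5% DMSO, percent of inhibitor-free DMSO control.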 The class given is biochemical.
Chain of JAK2 (O60674 whole entry, species assumed, canonical isoform): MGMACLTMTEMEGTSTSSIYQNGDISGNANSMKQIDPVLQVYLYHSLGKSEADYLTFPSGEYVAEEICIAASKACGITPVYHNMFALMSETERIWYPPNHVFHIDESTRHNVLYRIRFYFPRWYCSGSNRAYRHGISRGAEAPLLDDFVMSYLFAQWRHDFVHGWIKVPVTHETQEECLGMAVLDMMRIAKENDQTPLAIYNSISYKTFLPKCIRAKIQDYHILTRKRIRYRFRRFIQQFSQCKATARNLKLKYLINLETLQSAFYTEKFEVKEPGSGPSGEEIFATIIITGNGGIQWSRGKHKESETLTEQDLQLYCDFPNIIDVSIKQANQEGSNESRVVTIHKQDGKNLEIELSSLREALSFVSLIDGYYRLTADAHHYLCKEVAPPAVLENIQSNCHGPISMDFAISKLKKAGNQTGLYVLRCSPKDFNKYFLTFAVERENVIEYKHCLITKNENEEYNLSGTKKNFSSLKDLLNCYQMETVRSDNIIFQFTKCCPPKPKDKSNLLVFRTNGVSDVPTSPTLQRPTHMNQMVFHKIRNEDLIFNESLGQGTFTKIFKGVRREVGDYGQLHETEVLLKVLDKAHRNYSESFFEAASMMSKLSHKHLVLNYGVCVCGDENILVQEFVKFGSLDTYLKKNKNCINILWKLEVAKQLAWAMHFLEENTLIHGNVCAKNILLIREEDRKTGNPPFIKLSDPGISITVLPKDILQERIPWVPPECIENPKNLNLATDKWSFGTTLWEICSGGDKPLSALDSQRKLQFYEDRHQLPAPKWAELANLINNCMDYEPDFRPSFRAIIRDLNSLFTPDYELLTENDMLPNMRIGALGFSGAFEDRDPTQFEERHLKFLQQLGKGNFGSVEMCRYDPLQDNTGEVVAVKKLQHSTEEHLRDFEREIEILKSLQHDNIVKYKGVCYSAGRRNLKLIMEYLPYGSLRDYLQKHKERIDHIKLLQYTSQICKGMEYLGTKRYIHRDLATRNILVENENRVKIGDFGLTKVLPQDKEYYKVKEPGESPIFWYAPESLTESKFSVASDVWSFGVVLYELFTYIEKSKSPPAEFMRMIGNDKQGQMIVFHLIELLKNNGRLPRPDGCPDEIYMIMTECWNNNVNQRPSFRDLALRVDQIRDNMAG
In another experiment the target is Rho Kinase. Kind of experiment: ROCK kinase inhibition assay (Rho Kinase Activity, isoform not given). The class given is biochemical. The following applies: Table 15, mostly given as ranges. Here is the method: All compounds were initially prepared as 10 mM stocks in anhydrous dimethylsulfoxide (DMSO). A 20 μl aliquot of the 10 mM solutions was transferred to individual wells in column 1 of a 96-well polypropylene microtiter plate (Corning #3363) and diluted with DMSO to give a final compound concentration of 4 mM. Test compounds were then serially diluted 1:5 in DMSO for an 11-point concentration response and further diluted in the assay buffer bringing all compound concentrations to a final range of 100 μM to […] in 2.5% DMSO. The assay was performed in white 96-well, flat-bottom, half-area, non-binding assay plate (Corning #3642) in assay buffer consisting of 20 mM HEPES (pH 7.5), 10 mM MgCl2*6H2O, 100 μM sodium orthovanadate, 0.05% CHAPS and 0.1% bovine serum albumin. A 10 μL aliquot of compound from each well of the intermediate dilution plate and 20 μL of a 2× substrate/enzyme solution containing acceptor substrate (800 nM RSK2 peptide […] (SEQ ID NO: 1)), ROCK2 enzyme (10 nM), or ROCK1 enzyme, and 1,4-Dithiothreitol (DTT, 2 uM) were added to all wells. The reaction was initiated by the addition of 10 μL of 4× stock solution ATP (2 μM). Reactions were thoroughly mixed manually, covered and allowed to incubate at room temperature for 75 min. Protein kinase activity was quantitated using Promega's KINASE-GLO™ luminescent Kinase Assay Kit according to the manufacturer's directions. ATP concentrations remaining in Test wells following the termination of the enzymatic reaction were compared against control wells containing equivalent amounts of DMSO containing no inhibitor (CTRL). […] Percent of Control (POC) values were determined for each concentration of compound tested according to the equation: POC=((Test well value−BKG)/(CTRL−BKG))*100
IC50 values were converted to K; […]

Where [1] appears, read: Table 15, in brackets in the activity cell, read-out: JAK2 activity.

Counter-ions that a name gives are not always drawn. Like-named read-outs stand apart in the source and are kept apart here.

Chain of ROCK2 (O75116 whole entry, species assumed): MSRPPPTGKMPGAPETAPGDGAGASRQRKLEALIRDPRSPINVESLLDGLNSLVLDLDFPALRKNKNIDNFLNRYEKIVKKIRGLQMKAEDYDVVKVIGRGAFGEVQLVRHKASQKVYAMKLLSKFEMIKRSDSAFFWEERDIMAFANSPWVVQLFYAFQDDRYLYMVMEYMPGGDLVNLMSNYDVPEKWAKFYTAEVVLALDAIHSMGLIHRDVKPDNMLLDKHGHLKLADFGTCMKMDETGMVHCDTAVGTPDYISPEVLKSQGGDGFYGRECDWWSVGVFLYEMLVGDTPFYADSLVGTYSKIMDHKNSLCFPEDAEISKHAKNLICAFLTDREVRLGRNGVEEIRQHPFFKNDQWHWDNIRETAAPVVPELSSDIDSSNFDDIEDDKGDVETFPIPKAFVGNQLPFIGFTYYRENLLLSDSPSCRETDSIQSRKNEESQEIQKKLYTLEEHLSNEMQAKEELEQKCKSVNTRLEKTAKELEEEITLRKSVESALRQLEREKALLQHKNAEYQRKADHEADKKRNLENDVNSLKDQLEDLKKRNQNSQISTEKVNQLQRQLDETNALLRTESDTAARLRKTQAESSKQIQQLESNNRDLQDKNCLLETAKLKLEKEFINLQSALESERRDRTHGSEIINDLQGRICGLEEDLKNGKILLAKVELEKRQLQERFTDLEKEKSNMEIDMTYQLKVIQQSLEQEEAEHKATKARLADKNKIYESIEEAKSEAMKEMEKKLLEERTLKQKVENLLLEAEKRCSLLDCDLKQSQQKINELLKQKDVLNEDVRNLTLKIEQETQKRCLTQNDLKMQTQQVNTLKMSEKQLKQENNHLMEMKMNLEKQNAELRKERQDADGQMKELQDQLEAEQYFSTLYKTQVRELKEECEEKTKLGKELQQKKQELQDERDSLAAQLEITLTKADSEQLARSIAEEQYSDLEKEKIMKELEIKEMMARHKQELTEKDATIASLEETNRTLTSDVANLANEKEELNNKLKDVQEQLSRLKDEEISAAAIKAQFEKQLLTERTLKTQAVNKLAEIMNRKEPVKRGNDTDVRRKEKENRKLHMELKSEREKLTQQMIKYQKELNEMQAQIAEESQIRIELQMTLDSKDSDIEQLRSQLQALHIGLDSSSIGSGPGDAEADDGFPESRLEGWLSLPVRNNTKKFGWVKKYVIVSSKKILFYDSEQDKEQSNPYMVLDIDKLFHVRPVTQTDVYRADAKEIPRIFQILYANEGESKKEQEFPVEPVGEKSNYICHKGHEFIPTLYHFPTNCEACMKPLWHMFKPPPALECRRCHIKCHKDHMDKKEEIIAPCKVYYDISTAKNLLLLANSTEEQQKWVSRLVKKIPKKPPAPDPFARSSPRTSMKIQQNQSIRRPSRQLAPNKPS
Chain of ROCK1 (Q13464 whole entry, species assumed): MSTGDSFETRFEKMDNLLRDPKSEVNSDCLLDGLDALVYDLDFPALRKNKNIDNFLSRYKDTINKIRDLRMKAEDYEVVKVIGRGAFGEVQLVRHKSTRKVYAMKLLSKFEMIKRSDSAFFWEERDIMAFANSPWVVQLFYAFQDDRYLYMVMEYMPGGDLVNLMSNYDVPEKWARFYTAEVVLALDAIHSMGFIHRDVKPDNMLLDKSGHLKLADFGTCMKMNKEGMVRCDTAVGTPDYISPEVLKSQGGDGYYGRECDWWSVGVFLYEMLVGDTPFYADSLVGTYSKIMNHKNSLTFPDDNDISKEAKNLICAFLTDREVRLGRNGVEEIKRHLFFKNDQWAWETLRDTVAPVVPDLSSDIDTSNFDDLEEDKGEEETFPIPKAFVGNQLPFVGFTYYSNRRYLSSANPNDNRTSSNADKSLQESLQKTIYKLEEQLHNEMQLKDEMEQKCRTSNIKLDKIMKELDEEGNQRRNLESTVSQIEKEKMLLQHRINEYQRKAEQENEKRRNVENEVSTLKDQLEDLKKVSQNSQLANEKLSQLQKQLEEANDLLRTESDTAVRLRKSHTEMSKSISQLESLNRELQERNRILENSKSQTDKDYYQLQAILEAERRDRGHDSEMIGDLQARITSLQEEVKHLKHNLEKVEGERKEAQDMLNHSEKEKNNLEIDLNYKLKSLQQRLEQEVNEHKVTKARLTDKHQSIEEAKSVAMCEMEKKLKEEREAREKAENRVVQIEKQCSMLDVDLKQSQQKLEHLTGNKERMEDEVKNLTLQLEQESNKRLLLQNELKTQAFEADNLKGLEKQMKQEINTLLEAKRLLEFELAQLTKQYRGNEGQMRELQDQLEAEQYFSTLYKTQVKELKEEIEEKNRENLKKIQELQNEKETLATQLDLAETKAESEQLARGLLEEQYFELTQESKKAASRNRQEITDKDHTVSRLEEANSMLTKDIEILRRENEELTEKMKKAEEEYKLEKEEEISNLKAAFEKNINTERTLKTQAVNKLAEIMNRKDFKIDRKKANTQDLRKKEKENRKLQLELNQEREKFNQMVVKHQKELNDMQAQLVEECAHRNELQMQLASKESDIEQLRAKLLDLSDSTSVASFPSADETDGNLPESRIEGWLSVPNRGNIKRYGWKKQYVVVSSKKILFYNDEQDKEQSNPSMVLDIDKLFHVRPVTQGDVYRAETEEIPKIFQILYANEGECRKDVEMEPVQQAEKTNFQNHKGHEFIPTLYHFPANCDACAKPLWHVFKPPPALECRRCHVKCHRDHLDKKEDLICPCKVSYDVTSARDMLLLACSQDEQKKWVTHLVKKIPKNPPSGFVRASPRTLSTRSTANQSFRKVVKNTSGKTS

As for `O=C(Nc1ccc2cnccc2c1)[C@@H]1C[C@H]1c1ccc(S(=O)(=O)NCC2CCNCC2)cc1` [Example E271], the Ki at ROCK2 (ROCK2, Table 16) stood at 8 nM; on ROCK1 (ROCK1, Table 16) it was 9 nM.
Take `O=C(Nc1ccc2cnccc2c1)[C@@H]1C[C@H]1c1cccc(S(=O)(=O)Nc2ccccn2)c1` [Example E279]: the Ki at ROCK1 (ROCK1, Table 16) came out at 11 nM.
As for `O=C(Nc1ccc2cnccc2c1)[C@@H]1C[C@H]1c1ccc(S(=O)(=O)NCc2cccnc2)cc1` [Example E269], the Ki was determined as 9 nM on ROCK2 (ROCK2, Table 16) and 25 nM on ROCK1 (ROCK1, Table 16).
For the molecule `O=C(Nc1ccc2cnccc2c1)[C@@H]1C[C@H]1c1ccc(S(=O)(=O)NC2CCNCC2)cc1` (relative stereo) [(rel)-(1R,2R)-N-(isoquinolin-6-yl)-2-(4-(N-(piperidin-4-yl)sulfamoyl)phenyl) cyclopropane-1-carboxamide dihydrochloride], the Ki on ROCK2 (ROCK2, Table 17) was 7 nM; on ROCK1 (ROCK1, Table 17), 8.2 nM.
For the molecule `O=C(Nc1ccc2cnccc2c1)[C@@H]1C[C@H]1c1ccc(S(=O)(=O)NCC2CCNCC2)cc1` (relative stereo) [drawing 663, (rel)-(1R,2R)-N-(isoquinolin-6-yl)-2-(4-(N-(piperidin-4-ylmethyl)sulfamoyl)phenyl) cyclopropane-1-carboxamide dihydrochloride], the Ki stood at 8 nM on ROCK2 (ROCK2, Table 17) and 9 nM at ROCK1 (ROCK1, Table 17).
Take `O=C(Nc1ccc2cnccc2c1)[C@@H]1C[C@H]1c1ccc(S(=O)(=O)Nc2cccnc2)cc1` [Example E268]: the Ki at ROCK2 (ROCK2, Table 16) stood at 24 nM; at ROCK1 (ROCK1, Table 16), 85 nM.
`O=C(Nc1ccc2cnccc2c1)[C@@H]1C[C@H]1c1ccc(S(=O)(=O)NCc2cccnc2)cc1` (relative stereo) [(rel)-(1R,2R)-N-(isoquinolin-6-yl)-2-(4-(N-(pyridin-3-ylmethyl)sulfamoyl)phenyl) cyclopropane-1-carboxamide]: the Ki stood at 9 nM on ROCK2 (ROCK2, Table 17) and 25 nM on ROCK1 (ROCK1, Table 17).
As for `O=C(Nc1ccc2cnccc2c1)[C@@H]1C[C@H]1c1ccc(S(=O)(=O)Nc2ccccc2)cc1` (racemic) [(rel)-(1R,2R)-N-(isoquinolin-6-yl)-2-(4-(N-phenylsulfamoyl)phenyl)cyclopropane-1-carboxamide], the Ki on ROCK2 (ROCK2, Table 17) was 75 nM; on ROCK1 (ROCK1, Table 17), 154 nM.
As to `O=C(Nc1ccc2cnccc2c1)[C@@H]1C[C@H]1c1ccc(S(=O)(=O)NC2CCNCC2)cc1` [Example E275], the Ki at ROCK2 (ROCK2, Table 16) was determined as 7 nM; at ROCK1 (ROCK1, Table 16) it was 8.2 nM.
With `O=C(Nc1ccc2cnccc2c1)[C@@H]1C[C@H]1c1ccc(S(=O)(=O)NC[C@H]2CCCNC2)cc1` [Example E272], the Ki at ROCK2 (ROCK2, Table 16) was 5 nM; at ROCK1 (ROCK1, Table 16) it was 5 nM.
As for `O=C(Nc1ccc2cnccc2c1)[C@@H]1C[C@H]1c1ccc(S(=O)(=O)Nc2cccnc2)cc1` [drawing 658], the Ki on ROCK2 (ROCK2, Table 17) is 24 nM; on ROCK1 (ROCK1, Table 17), 85 nM.
Turning to `O=C(Nc1ccc2cnccc2c1)[C@@H]1C[C@H]1c1ccc(I)cc1` [Example E277], the Ki is 175 nM at ROCK2 (ROCK2, Table 16); 650 nM at JAK2 (Table 16, read-out: JAK2); 270 nM at ROCK1 (ROCK1, Table 16).
Consider `COc1ccc(CNC(=O)c2ccc([C@@H]3C[C@H]3C(=O)Nc3ccc4cnccc4c3)c(F)c2)cc1` (relative stereo) [Example E193, trans-3-fluoro-4-(2-(isoquinolin-6-ylcarbamoyl)cyclopropyl)-N-(4-methoxybenzyl)benzamide], for which the Ki on JAK2 (setting [1]) was 110 nM; on Rho Kinase, 6 to 8 nM.
As for `O=C(Nc1ccc2cnccc2c1)[C@@H]1C[C@H]1c1ccc(S(=O)(=O)NC[C@H]2CCCNC2)cc1` (relative stereo) [(rel)-(1R,2R)-N-(isoquinolin-6-yl)-2-(4-(N-(((S)-piperidin-3-yl)methyl)sulfamoyl)phenyl) cyclopropane-1-carboxamide dihydrochloride], the Ki was determined as 5 nM on ROCK2 (ROCK2, Table 17) and 5 nM on ROCK1 (ROCK1, Table 17).
Consider `O=C(Nc1ccc2cnccc2c1)c1ccc(C2CC2C(=O)Nc2ccc3cnccc3c2)cc1` (centres unmarked) [Example E18], for which the Ki was 1000 to 1200 nM on JAK2 (setting [1]) and 0.8 to 8 nM on Rho Kinase.
On the same counts, the results for `CC(C)(C)OC(=O)c1ccc(C2CC2C(=O)Nc2ccc3cnccc3c2)cc1` (centres unmarked) [Example E191.1] are 5200 nM and 105 to 155 nM.
The matching figures for `O=C(NCC1CCNC1)c1ccc(C2CC2C(=O)Nc2ccc3cnccc3c2)cc1` (centres unmarked) [Example E20.2]: 27 to 150 nM and 4 to 6 nM.
The matching figures for `O=C(Nc1ccncc1)c1ccc(C2CC2C(=O)Nc2ccc3cnccc3c2)cc1` (centres unmarked) [Example E12]: 400 nM and 1 to 4 nM.
Regarding `O=C(NCCO)c1ccc(C2CC2C(=O)Nc2ccc3cnccc3c2)cc1` (centres unmarked) [Example E38], the Ki is 136 nM at JAK2 (setting [1]) and 7 to 9.5 nM at Rho Kinase.
On the same counts, the results for `O=C(Nc1ccccc1Cl)OCc1ccc(C2CC2C(=O)Nc2ccc3cnccc3c2)cc1` (centres unmarked) [Example E143] are 1300 to 2700 nM and 190 to 250 nM.
As to `Cc1cncc2ccc(NC(=O)C3CC3c3ccc(C(=O)NCc4cccnc4)cc3)cc12` (centres unmarked) [Example E34], the Ki on JAK2 (setting [1]) lay within 30 to 45 nM; on Rho Kinase it was 7 to 14 nM.
`O=C(Nc1ccc2cnccc2c1)[C@@H]1C[C@H]1c1ccc(S(=O)(=O)N2CCNCC2)cc1` [Example E276]: the Ki stood at 31 nM on ROCK2 (ROCK2, Table 16) and 48 nM at ROCK1 (ROCK1, Table 16).
`O=C(NCc1ccccn1)c1ccc(C2CC2C(=O)Nc2ccc3cnccc3c2)c(F)c1` (centres unmarked) [Example E194]: the Ki is 15 nM on JAK2 (setting [1]) and 3.5 to 4 nM at Rho Kinase.
Take `O=C(Nc1ccc2cnccc2c1)[C@@H]1C[C@H]1c1ccc(I)cc1` (relative stereo) [Example E251, rel-(1R,2R)-2-(4-iodophenyl)-N-(isoquinolin-6-yl)cyclopropane-1-carboxamide]: the Ki lay in the range of 500 to 800 nM on JAK2 (setting [1]) and 150 to 400 nM on Rho Kinase.
On the same counts, the results for `O=C(OCc1ccccn1)c1ccc([C@@H]2C[C@H]2C(=O)Nc2ccc3cnccc3c2)cc1` (racemic) [Example E99, trans-pyridin-2-ylmethyl 4-(2-(isoquinolin-6-ylcarbamoyl)cyclopropyl) benzoate] are 250 to 600 nM and 0.5 to 6 nM.
For `O=C(Nc1ccc2cnccc2c1)[C@@H]1C[C@H]1c1ccc(I)cc1` (relative stereo) [drawing 670, (rel)-(1R,2R)-2-(4-iodophenyl)-N-(isoquinolin-6-yl)cyclopropane-1-carboxamide], the Ki was 175 nM at ROCK2 (ROCK2, Table 17); 650 nM on JAK2 (Table 17, read-out: JAK2); 270 nM on ROCK1 (ROCK1, Table 17).
Take `O=C(NCc1ccccn1)c1ccc(C2CC2C(=O)Nc2ccc3c(O)nccc3c2)cc1` (centres unmarked) [Example E31]: the Ki at JAK2 (setting [1]) was 375 to 570 nM; on Rho Kinase, 5 to 7 nM.
On the same counts, the results for `O=C(O)c1ccc([C@@H]2C[C@H]2C(=O)Nc2ccc3cnccc3c2)cc1` [Example E116, 4-((1R,2R)-2-(isoquinolin-6-ylcarbamoyl)cyclopropyl)benzoic acid] are 400 to 700 nM and 100 to 400 nM.
The matching figures for `CC(C)(C)OC(=O)N1CCC[C@@H](CNC(=O)c2ccc([C@@H]3C[C@H]3C(=O)Nc3ccc4cnccc4c3)cc2)C1` [Example E57.1]: 45 to 65 nM and 0.15 to 1 nM.
The matching figures for `O=C(OCc1ccccc1)c1ccc([C@@H]2C[C@H]2C(=O)Nc2ccc3cnccc3c2)cc1` (relative stereo) [Example E96, trans-benzyl 4-(2-(isoquinolin-6-ylcarbamoyl)cyclopropyl)benzoate]: 1600 to 5000 nM and 20 to 130 nM.
As to `O=C(Nc1ccc2cnccc2c1)[C@@H]1C[C@H]1c1ccc(S(=O)(=O)N2CCNCC2)cc1` (relative stereo) [(rel)-(1R,2R)-N-(isoquinolin-6-yl)-2-(4-(piperazin-1-ylsulfonyl)phenyl) cyclopropane-1-carboxamide dihydrochloride], the Ki at ROCK2 (ROCK2, Table 17) stood at 31 nM; at ROCK1 (ROCK1, Table 17) it was 48 nM.
On to `O=C(Nc1ccc2cnccc2c1)[C@@H]1C[C@H]1c1ccc(S(=O)(=O)Nc2ccccc2)cc1` [Example E265], for which the Ki was 75 nM at ROCK2 (ROCK2, Table 16) and 154 nM at ROCK1 (ROCK1, Table 16).

(Values after patent publication US10858339B2, “Aryl cyclopropyl-amino-isoquinolinyl amide compounds” (priority 2017, dated 2020).)
